According to patent US20140128352A1, “COMPOUNDS AND METHODS FOR MODULATING MITOCHONDRIAL METABOLISM AND REACTIVE OXYGEN SPECIES PRODUCTION” (Buck Institute for Research on Aging, priority 2012, published 2014):
“Also recorded” adds a separate entry of the source. Like-named read-outs stand apart in the source and are kept apart here.

Tests used:
[1] = test system: ubiquinone binding site of complex I (IQ); experiment: High-throughput screen: ROS production from ubiquinone binding site of complex I (IQ), isolated skeletal muscle mitochondria; type: biochemical, rat; details: for IQ: percent change in ROS from DMSO controls
[2] = target: T1, flavin binding site of complex I (IF) (Rattus norvegicus, UniProt Q5XIH3); experiment: High-throughput screen: ROS production from flavin binding site of complex I (IF); type: biochemical
T1 construct: freshly isolated muscle mitochondria were assayed; from tissue; host or cells: rat skeletal muscle mitochondria (Wistar, Harlan Laboratories)

[3] = target: T2, outer ubiquinone binding site of complex III (IIIQO) (Rattus norvegicus, UniProt P00159+P20788); experiment: High-throughput screen: ROS production from outer ubiquinone binding site of complex III (IIIQO); type: biochemical
T2 construct: freshly isolated muscle mitochondria were assayed; from tissue; host or cells: rat skeletal muscle mitochondria (Wistar, Harlan Laboratories)
Experimental: (§1) Skeletal muscle mitochondria were isolated from 5-8 week old female Wistar rats (Harlan Laboratories). Minced muscle was homogenized in buffer containing bacterial protease Type VIII prior to differential centrifugation to separate mitochondria from other tissue components. Unless otherwise stated, freshly isolated muscle mitochondria were assayed in buffer containing 120 mM KCl, 5 mM HEPES, 1 mM EGTA, 0.3% (w/v) bovine serum albumin. Where indicated, CaCl2 was added to yield a final free concentration of 250 nM calcium at pH 7.0 at 37° C.
(§2) Compounds (10 mM in DMSO) were randomly selected from a library of 24,000 compounds obtained from ChemBridge and curated by the lab of Robert Hughes at the Buck Institute. Master screening plates were prepared using a Biomek FX liquid handling workstation (Beckman) to transfer 1 μL of each compound into individual wells on 96-well storage plates (80 compounds per plate). Master plates were sealed with foil and stored at −80° C. Just prior to use, plates were brought to room temperature and diluted 300-fold with standard buffer (13.3X=33.3 μM). To monitor the performance of each assay throughout screening and to provide intra-plate normalization reference points, DMSO negative controls and known mitochondrial inhibitor positive controls were included on each Master compound plate.
(§3) Total amounts of superoxide and H2O2 production were determined fluorometrically as H2O2, without distinguishing between them, in the presence of exogenous superoxide dismutase (25 units/mL final), horseradish peroxidase (1 unit/mL final), and Amplex UltraRed (25 μM final) as described (Affourtit, C. et al. (2012) Measurement of proton leak and electron leak in isolated mitochondria. Methods Mol. Biol. 810: 165-82). Just prior to use, a bulk 3.3X solution was made in standard buffer and distributed into a 2 mL deep well 96-well transfer plate.
To assess the effects of a compound on ROS production from the outer ubiquinone binding site of complex III (IIIQO), Start Solution containing 5 mM succinate, 4 μM rotenone and 2.5 μM antimycin A was distributed into standard 96-well transfer plates. A Biomek FX workstation was programmed to dispense solutions into black 96-well assay plates. Solutions were dispensed to all assay plates in the following order: ROS Detection solution described in Example 3, Mitochondria solution described in Example 1 to a final concentration of 0.1 mg/ml, and Compound dilutions described in Example 2. Duplicate assay plates were made and each was initiated by the addition of 3.3X Start solution containing 5 mM succinate, 4 μM rotenone and 2.5 μM antimycin A. Plates were incubated in the dark at room temperature for 30-40 minutes before acquiring endpoint fluorescence using a Victor 3V plate reader (Perkin Elmer) equipped with 550/590 nm excitation/emission filters.
(§4) The fluorescence values in each well were scaled as the percent change from the intra-plate DMSO controls with the appropriate inhibitor positive controls defined as −100%. Following initial scaling, intra-plate normalized values were subjected to Tukey's two-way median polish to remove row and column dependent positional effects (Malo et al., 2006).

[4] = target: T3, succinate dehydrogenase/complex II (SDH) (Rattus norvegicus, UniProt P21913+Q641Z9+Q6PCT8+Q920L2); experiment: High-throughput screen: ROS production from succinate dehydrogenase/complex II (SDH); type: biochemical; details: percent change in ROS from DMSO controls
T3 construct: freshly isolated muscle mitochondria were assayed; from tissue; host or cells: rat skeletal muscle mitochondria (Wistar, Harlan Laboratories)
Experimental: as §1
Just prior to use, plates were brought to room temperature and diluted 300-fold with standard buffer (13.3X=33.3 μM). To monitor the performance of each assay throughout screening and to provide intra-plate normalization reference points, DMSO negative controls and known mitochondrial inhibitor positive controls were included on each Master compound plate.
as §3
To assess the effects of a compound on ROS production from succinate dehydrogenase/complex II (SDH), Start Solution containing 15 μM palmitoyl carnitine, 2.5 μM antimycin A and 2 μM myxothiazol was distributed into standard 96-well transfer plates. A Biomek FX workstation was programmed to dispense solutions into black 96-well assay plates. Solutions were dispensed to all assay plates in the following order: ROS Detection solution described in Example 3, Mitochondria solution described in Example 1 to a final concentration of 0.3 mg/ml, and Compound dilutions described in Example 2. Duplicate assay plates were made and each was initiated by the addition of 3.3X Start solution containing 15 μM palmitoyl carnitine, 2.5 μM antimycin A and 2 μM myxothiazol. Plates were incubated in the dark at room temperature for 30-40 minutes before acquiring endpoint fluorescence using a Victor 3V plate reader (Perkin Elmer) equipped with 550/590 nm excitation/emission filters.
as §4

[5] = target: T4, glycerol-3-phosphate dehydrogenase (GPDH) (Rattus norvegicus, UniProt P35571); experiment: High-throughput screen: ROS production from glycerol-3-phosphate dehydrogenase (GPDH); type: biochemical; parameters: inhibition: dose or concentration left out as unconfirmed; details: for GPDH / inhibition: percent change in ROS from DMSO controls; for inhibition at 2.5 µM: Table 6, 25 mM glycerol phosphate, rotenone, antimycin A, malonate, myxothiazol, compounds 2.5 μM, scaled to IQ positive controls, read-out: % Reduction in ROS Production (GPDH)
T4 construct: The activity of GPDH in intact mitochondria (0.3 mg/mL) was measured; from tissue; host or cells: rat skeletal muscle mitochondria (Wistar, Harlan Laboratories)
T4 sequence (P35571 43-727): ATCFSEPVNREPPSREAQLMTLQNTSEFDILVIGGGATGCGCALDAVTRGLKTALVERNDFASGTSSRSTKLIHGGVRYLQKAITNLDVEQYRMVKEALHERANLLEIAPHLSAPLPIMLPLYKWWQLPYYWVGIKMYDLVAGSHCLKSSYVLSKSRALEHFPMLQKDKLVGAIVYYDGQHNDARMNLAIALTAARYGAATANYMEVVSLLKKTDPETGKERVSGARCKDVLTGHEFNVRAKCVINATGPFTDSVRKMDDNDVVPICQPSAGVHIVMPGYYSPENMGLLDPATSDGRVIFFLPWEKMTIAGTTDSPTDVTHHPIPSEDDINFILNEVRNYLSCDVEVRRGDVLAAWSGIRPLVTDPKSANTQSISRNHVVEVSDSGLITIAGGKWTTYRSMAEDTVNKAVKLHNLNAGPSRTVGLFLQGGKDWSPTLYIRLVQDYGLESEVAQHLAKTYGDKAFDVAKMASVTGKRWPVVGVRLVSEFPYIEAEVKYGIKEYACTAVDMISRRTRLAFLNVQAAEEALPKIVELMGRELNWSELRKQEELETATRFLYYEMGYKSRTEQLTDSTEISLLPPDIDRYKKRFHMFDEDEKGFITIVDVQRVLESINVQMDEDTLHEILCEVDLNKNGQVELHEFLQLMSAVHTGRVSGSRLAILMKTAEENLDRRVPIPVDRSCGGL
Experimental: as §1, §2, §3
To assess the effects of a compound on ROS production from glycerol-3-phosphate dehydrogenase (GPDH), Start Solution containing 25 mM glycerol phosphate, 4 μM rotenone, 2.5 μM antimycin A, 1 mM malonate, 2 μM myxothiazol was distributed into standard 96-well transfer plates. A Biomek FX workstation was programmed to dispense solutions into black 96-well assay plates. Solutions were dispensed to all assay plates in the following order: ROS Detection solution described in Example 3, Mitochondria solution described in Example 1 to a final concentration of 0.2 mg/ml, and Compound dilutions described in Example 2. Duplicate assay plates were made and each was initiated by the addition of 3.3X Start solution containing 25 mM glycerol phosphate, 4 μM rotenone, 2.5 μM antimycin A, 1 mM malonate, 2 μM myxothiazol. Plates were incubated in the dark at room temperature for 30-40 minutes before acquiring endpoint fluorescence using a Victor 3V plate reader (Perkin Elmer) equipped with 550/590 nm excitation/emission filters.
The fluorescence values in each well were scaled as the percent change from the intra-plate DMSO controls. […] Following initial scaling, intra-plate normalized values were subjected to Tukey's two-way median polish to remove row and column dependent positional effects (Malo et al., 2006).

site IQ = experiment: Retest of IQ ROS production (expanded microplate panel / cuvette); type: biochemical, rat; details: for effect on IQ ROS with subsaturating substrate: subsaturating (0.5 mM) succinate
Experimental: Compounds identified as site-selective hits as well as structural analogs were re-sourced from ChemBridge and dissolved in DMSO as 80 mM stocks. Master Titration Plates were prepared manually by serially diluting 80 mM compound stocks between 0.08 and 80 mM on 96-well microplates. Four compounds were titrated in duplicate on each plate. Additional DMSO controls were interspersed across these plates to serve as local normalization controls during analysis since two-way median polishing was not appropriate. Just prior to use, compounds were diluted 100-fold with standard buffer (10X). The same known inhibitor positive controls were included on each plate as during high-throughput screening.
The five core ROS assays and single ΔΨm assay were carried out as in the initial high-throughput screen. In addition, several assays were included to help validate the specificity of the compounds for a given site of production. All compounds were titrated against separate assays targeting IQ ROS and IIIQo ROS using subsaturating (0.5 mM final) succinate. […] Specifically, ΔΨm was monitored separately with 5 mM succinate (in the presence of 4 μM rotenone) in addition to glutamate and malate as before. The use of different substrates was designed to reveal compounds that disrupt mitochondrial function in a substrate specific manner.
Most frequently, these changes involved the use of different substrates to supply electrons from an alternative entry point in the chain. If a site of ROS production is being targeted selectively by a compound, then in many cases the supply of electrons should not influence the effectiveness of this compound at suppressing ROS production. […] Alternative conditions are listed below: • 1) IQ ROS: 5 mM succinate with 1 mM glutamate • 2) IF ROS: 5 mM malate only as substrate (in the presence of 4 μM rotenone) • 3) IIIQo ROS: 5 mM succinate (in the presence of 3 mM malonate, 4 uM rotenone, and 2.5 μM antimycin A) • 4) IIIQo ROS: 25 mM glycerol phosphate (in the presence of 1 mM malonate, 4 μM rotenone, and 2.5 μM antimycin A) • 5) SDH: 0.5 mM succinate (in the presence of 4 uM rotenone, 2.5 uM antimycin A, and 2 μM myxothiazol) • 6) GPDH: Vary the concentration of glycerol phosphate in the presence or absence of 250 nM free calcium to allosterically activate GPDH (all in the presence of 4 μM rotenone, 2.5 uM antimycin A, 1 mM malonate, and 2 μM myxothiazol) • 7) ΔΨm: Vary the concentration of glycerol phosphate in the presence or absence of 250 nM free calcium to allosterically activate GPDH and in the presence or absence of 80 ng/mL nigericin (all in the presence of 4 μM rotenone)
The fluorescence values in each well were scaled in relation to the intra-plate DMSO and known inhibitor controls as in the high-throughput screen except that median values for local interspersed DMSO wells (3-6 wells) were used rather than just the 8 DMSO wells in columns 1 and 12. This normalization was applied in place of the two-way median polish used during high-throughput screening to minimize row and column effects. […] At this stage, strong candidates were not necessarily excluded from further testing if subtle off-target effects were observed (e.g. loss of specificity or signs of general inhibition at the highest concentrations). Rather, these candidates were often pursued for more detailed mechanistic studies with the expectation that subsequent structure activity analysis would provide insight into which structurally related compounds would provide the optimal specificity for a given site of production.
Candidate compounds that remained site-selective following robotics assisted retesting were subsequently tested for effects on ROS production and ΔΨm with a Varian Cary Eclipse fluorimeter (excitation 550 nm, emission at 590 nm). This experimental format allows kinetic measurements of ROS production and ΔΨm with more accurate temperature control, sample stirring, and background correction. […]

[6] = test system: mitochondrial membrane potential (ΔΨm); experiment: Membrane potential (ΔΨm) counterscreen with TMRM; details: malate, nigericin
[7] = Table 7, percent change in ROS from DMSO controls
[8] = Table 8, percent change in ROS from DMSO controls
[9] = Table 9, percent change in ROS from DMSO controls
[10] = Table 3, 5 mM glutamate, 5 mM malate, 4 μM rotenone, compounds 2.5 μM, percent change from DMSO, positive control −100%, read-out: % Reduction in ROS production (IF)
[11] = Table 7, percent change in ROS from DMSO controls, read-out: IF
[12] = Table 7, percent change in ROS from DMSO controls, read-out: IIIQO
[13] = Table 9, percent change in ROS from DMSO controls, read-out: IIIQo
[14] = Table 4, 5 mM succinate, 4 μM rotenone, 2.5 μM antimycin A, compounds 2.5 μM, percent change from DMSO, read-out: % Reduction in ROS production (IIIQO)

T3 sequence (Q920L2 35-656): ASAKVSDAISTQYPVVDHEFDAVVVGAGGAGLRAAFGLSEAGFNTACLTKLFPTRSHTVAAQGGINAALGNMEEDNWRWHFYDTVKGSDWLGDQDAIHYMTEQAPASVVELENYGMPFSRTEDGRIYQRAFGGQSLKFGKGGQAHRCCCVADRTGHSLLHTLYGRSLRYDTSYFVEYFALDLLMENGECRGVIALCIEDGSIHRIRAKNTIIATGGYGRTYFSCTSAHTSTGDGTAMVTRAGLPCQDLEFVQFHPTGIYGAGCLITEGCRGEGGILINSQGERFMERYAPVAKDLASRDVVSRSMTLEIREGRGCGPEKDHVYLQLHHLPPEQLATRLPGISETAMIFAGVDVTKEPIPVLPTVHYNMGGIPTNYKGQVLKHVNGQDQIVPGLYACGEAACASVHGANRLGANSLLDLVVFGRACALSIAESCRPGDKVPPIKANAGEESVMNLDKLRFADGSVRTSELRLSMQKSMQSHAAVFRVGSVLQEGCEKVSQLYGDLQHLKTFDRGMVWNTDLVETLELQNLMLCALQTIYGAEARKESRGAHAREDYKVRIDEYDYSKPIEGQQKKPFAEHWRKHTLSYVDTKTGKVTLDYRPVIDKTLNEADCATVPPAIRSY
T3 sequence (P21913 31-282): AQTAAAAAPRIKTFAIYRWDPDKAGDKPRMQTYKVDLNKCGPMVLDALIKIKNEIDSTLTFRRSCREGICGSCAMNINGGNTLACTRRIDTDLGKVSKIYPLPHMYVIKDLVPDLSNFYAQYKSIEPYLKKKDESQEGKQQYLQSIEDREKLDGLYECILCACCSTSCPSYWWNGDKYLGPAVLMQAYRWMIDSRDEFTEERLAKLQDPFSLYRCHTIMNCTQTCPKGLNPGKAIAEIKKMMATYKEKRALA
T3 sequence (Q641Z9 30-169 limits assumed): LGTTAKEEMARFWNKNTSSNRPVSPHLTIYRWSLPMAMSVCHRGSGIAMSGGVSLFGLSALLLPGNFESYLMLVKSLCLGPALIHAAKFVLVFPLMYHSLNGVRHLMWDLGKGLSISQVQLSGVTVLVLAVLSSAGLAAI
T3 sequence (Q6PCT8 57-159): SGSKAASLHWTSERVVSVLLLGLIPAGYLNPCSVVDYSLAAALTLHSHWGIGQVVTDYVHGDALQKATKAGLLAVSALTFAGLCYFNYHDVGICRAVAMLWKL
T1 sequence (Q5XIH3 21-464 limits assumed, one chain of several): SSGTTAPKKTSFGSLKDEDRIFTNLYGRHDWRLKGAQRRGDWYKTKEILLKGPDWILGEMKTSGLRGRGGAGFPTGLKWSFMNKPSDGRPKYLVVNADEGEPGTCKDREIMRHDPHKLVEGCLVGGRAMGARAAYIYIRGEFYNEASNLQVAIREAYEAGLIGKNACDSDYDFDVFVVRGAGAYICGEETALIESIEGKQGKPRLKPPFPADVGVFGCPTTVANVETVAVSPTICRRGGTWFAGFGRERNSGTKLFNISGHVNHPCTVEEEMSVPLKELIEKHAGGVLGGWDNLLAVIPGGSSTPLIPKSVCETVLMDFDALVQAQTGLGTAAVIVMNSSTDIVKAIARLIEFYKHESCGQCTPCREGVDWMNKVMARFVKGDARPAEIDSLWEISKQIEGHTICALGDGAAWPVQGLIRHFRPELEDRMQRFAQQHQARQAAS

| Compound | IQ ([1]; Table 7) | IQ ([1]; Table 8) | IQ ([1]; Table 9) | IF [2, 8] | IF [2, 9] | IIIQO [3, 8] | SDH ([4]; Table 8) | SDH ([4]; Table 9) | GPDH ([5]; Table 8) | GPDH ([5]; Table 9) | ΔΨm ([6]; Table 8, glutamate) | ΔΨm ([6]; Table 9, glutamate) | inhibition at 2.5 µM [2, 10] | inhibition at 2.5 µM [2, 11] | inhibition at 2.5 µM [3, 12] | inhibition at 2.5 µM [3, 13] | inhibition ([5]; Table 7) | effect on IQ ROS with subsaturating substrate (site IQ; retest) | inhibition at 2.5 µM ([4]; Table 7) | other results |
| --- | --- | --- | --- | --- | --- | --- | --- | --- | --- | --- | --- | --- | --- | --- | --- | --- | --- | --- | --- | --- |
| O=[N+]([O-])c1ccc(Oc2ccc(S(=O)(=O)NC3CCCCC3)cc2)cc1 [Compound 4] | −47.9 | −47.9 | −47.9 | 3.1 | 3.1 | −0.3 | 0.8 | 0.8 | 2.8 | 2.8 | −0.9 | −0.9 | – | – | – | – | – | – | – | % Reduction in ROS production (IQ) ([1]; Table 2, 5 mM succinate, compounds 2.5 μM, percent change from DMSO, positive control −100%): −47.9%; IF [2, 7]: 3.1; IIIQO [3, 7]: −0.3; IIIQO [3, 9]: −0.3; SDH ([4]; Table 7): 0.8; GPDH ([5]; Table 7): 2.8; effects on other major sites of ROS production (site IQ; 2.5 uM): without discernible effects on any other major sites within mitochondria |
| O=C(O)C1CCCCC1C(=O)NC1CCCCC1 (stereo not drawn) [Compound 19] | 0.0 | 0.0 | 0.0 | −25.6 | −25.6 | 1.2 | – | – | −1.0 | −1.0 | −1.4 | −1.4 | 25.6% | 25.6% | -1.2% | -1.2% | 1% | minimal effects on IQ ROS production driven with subsaturating substrate until 25 μM | – | effect on IQ ROS with saturating substrate (site IQ; retest, saturating substrate): unaffected until the highest concentration tested (80 μM) |
| COc1cc(CN(CCN(C)C)Cc2ccccc2)cc(OC)c1 [Compound 31] | −1.4 | −1.4 | −1.4 | −7.6 | −7.6 | −1.4 | −6.0 | −6.0 | 0.5 | 0.5 | 0.3 | 0.3 | 7.6% | 7.6% | 1.4% | 1.4% | -0.5% | stronger off-target effects on IQ ROS when driven by low concentration succinate | 6% | – |
| Cc1ccc(C)c(CN(CCCN(C)C)CCCN(C)C)c1 [Compound 32] | −0.6 | −0.6 | −0.6 | −28.8 | −28.8 | 2.5 | −6.8 | −6.8 | 0.2 | 0.2 | −0.2 | −0.2 | 28.8% | 28.8% | -2.5% | -2.5% | -0.2% | – | 6.8% | – |
| COc1ccc(Cl)cc1N(Cc1ccccc1)Cc1ccccc1 [Compound 34] | 4.0 | 4.0 | 4.0 | 5.6 | 5.6 | −49.4 | 3.9 | 3.9 | −4.0 | −4.0 | 3.4 | 3.4 | – | -5.6% | 49.4% | 49.4% | 4% | consistently increased IQ ROS but only with subsaturating substrate | -3.9% | inhibition at 2.5 µM [3, 14]: 49.4% |
| CC1=CC(C)(C)N(Cc2ccc([N+](=O)[O-])cc2)c2ccccc21 [Compound 37] | 0.3 | 0.3 | 0.3 | 0.6 | 0.6 | −32.1 | 1.2 | 1.2 | −0.6 | −0.6 | 1.5 | 1.5 | – | -0.6% | 32.1% | 32.1% | 0.6% | decreased IQ ROS with low substrate; also recorded: lowers site IQ ROS with subsaturating succinate | -1.2% | inhibition at 2.5 µM [3, 14]: 32.1% |
| O=C(O)CSc1cccc(C(=O)Nc2ccc(Br)cc2)c1 [Compound 47] | −0.1 | −0.1 | −0.1 | −0.5 | −0.5 | 0.0 | 1.3 | 1.3 | −14.1 | −14.1 | 0.0 | 0.0 | – | 0.5% | 0% | 0% | 14.1% | – | -1.3% | inhibition at 2.5 µM [5]: 14.1% |
| O=C(O)CCC(=O)Nc1ccc(-c2nc3cc4ccccc4cc3[nH]2)cc1 [Compound 61] | −17.1 | – | – | – | – | – | – | – | – | – | – | – | – | 4.8% | 2.4% | – | 3.8% | – | 4.5% | inhibition at 2.5 µM [5]: 48.3% |
